Results as given in PubChem BioAssay (NCI).
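Method: 48-hour compound exposure of cells in 96-well plates, five concentrations, linear interpolation of endpoints. At the TGI there is no net growth.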

Columns and labels:
Test in all cases: NCI-60 cell line screen, 48 h
[1] = tested on: 786-0 renal
[2] = tested on: A498 renal
[3] = tested on: A549 NSCLC
[4] = tested on: ACHN renal
[5] = tested on: BT-549 breast
[6] = tested on: CAKI-1 renal
[7] = tested on: CCRF-CEM leukemia
[8] = tested on: COLO 205 colon
[9] = tested on: DU-145 prostate
[10] = tested on: EKVX NSCLC
[11] = tested on: HCC-2998 colon
[12] = tested on: HCT-116 colon
[13] = tested on: HCT-15 colon
[14] = tested on: HL-60(TB) leukemia
[15] = tested on: HOP-62 NSCLC
[16] = tested on: HOP-92 NSCLC
[17] = tested on: HS 578T breast
[18] = tested on: HT29 colon
[19] = tested on: IGROV1 ovarian
[20] = tested on: K-562 leukemia
[21] = tested on: KM12 colon
[22] = tested on: LOX IMVI melanoma
[23] = tested on: MALME-3M melanoma
[24] = tested on: MCF7 breast
[25] = tested on: MDA-MB-231 breast
[26] = tested on: MDA-MB-435
[27] = tested on: MDA-N
[28] = tested on: MOLT-4 leukemia
[29] = tested on: NCI-H23 lung
[30] = tested on: NCI-H460 lung
[31] = tested on: NCI-H522 lung
[32] = tested on: NCI/ADR-RES ovarian
[33] = tested on: OVCAR-3 ovarian
[34] = tested on: OVCAR-5 ovarian
[35] = tested on: OVCAR-8 ovarian
[36] = tested on: PC-3 prostate
[37] = tested on: RPMI-8226 leukemia
[38] = tested on: RXF 393 renal
[39] = tested on: SF-268 CNS
[40] = tested on: SF-295 CNS
[41] = tested on: SF-539 CNS
[42] = tested on: SK-MEL-2 melanoma
[43] = tested on: SK-MEL-28 melanoma
[44] = tested on: SK-MEL-5 melanoma
[45] = tested on: SK-OV-3 ovarian
[46] = tested on: SN12C renal
[47] = tested on: SNB-19 CNS
[48] = tested on: SNB-75 CNS
[49] = tested on: SR leukemia
[50] = tested on: SW-620 colon
[51] = tested on: T-47D breast
[52] = tested on: TK-10 renal
[53] = tested on: U251 CNS
[54] = tested on: UACC-257 melanoma
[55] = tested on: UACC-62 melanoma
[56] = tested on: UO-31 renal
[57] = tested on: M14 melanoma
[58] = tested on: NCI-H226 lung
[59] = tested on: OVCAR-4 ovarian

Compound: O=C1/C(=C/c2ccncc2)C(n2cccc2)c2c(Br)sc(Br)c21 (centres undefined)
- TGI [1]: 11.5 µM
- TGI [2]: 39 µM
- TGI [3]: 34.5 µM
- TGI [4]: 17.1 µM
- TGI [5]: 16.8 µM
- TGI [6]: 10.9 µM
- TGI [7]: 4.99 µM
- TGI [8]: 28.6 µM
- TGI [9]: 12.9 µM
- TGI [10]: 8.87 µM
- TGI [11]: 3.45 µM
- TGI [12]: 10.4 µM
- TGI [13]: 11.1 µM
- TGI [14]: 4.68 µM
- TGI [15]: 11.3 µM
- TGI [16]: 7.83 µM
- TGI [17]: 18.1 µM
- TGI [18]: 23.5 µM
- TGI [19]: 4.67 µM
- TGI [20]: 6.91 µM
- TGI [21]: 24.7 µM
- TGI [22]: 4.54 µM
- TGI [23]: 10.9 µM
- TGI [24]: 12.7 µM
- TGI [25]: 4.96 µM
- TGI [26]: 4.66 µM
- TGI [27]: 8.36 µM
- TGI [28]: 4.64 µM
- TGI [29]: 11.6 µM
- TGI [30]: 18.1 µM
- TGI [31]: 30.5 µM
- TGI [32]: 51.2 µM
- TGI [33]: 3.38 µM
- TGI [34]: 29.2 µM
- TGI [35]: 5.82 µM
- TGI [36]: 16.1 µM
- TGI [37]: 7.2 µM
- TGI [38]: 3.96 µM
- TGI [39]: 11 µM
- TGI [40]: 26.1 µM
- TGI [41]: 17.1 µM
- TGI [42]: 6.56 µM
- TGI [43]: 8.73 µM
- TGI [44]: 27.6 µM
- TGI [45]: 20.7 µM
- TGI [46]: 16.4 µM
- TGI [47]: 30.6 µM
- TGI [48]: 9.79 µM
- TGI [49]: 9.51 µM
- TGI [50]: 3.55 µM
- TGI [51]: 16.4 µM
- TGI [52]: 14.6 µM
- TGI [53]: 4.86 µM
- TGI [54]: 5.03 µM
- TGI [55]: 7.5 µM
- TGI [56]: 5.42 µM

Compound: Nc1nncc2[nH]cnc12
- TGI [1]: > 100 µM
- TGI [2]: > 100 µM
- TGI [3]: > 100 µM
- TGI [4]: > 100 µM
- TGI [5]: 77.4 µM
- TGI [6]: > 100 µM
- TGI [7]: 20.7 µM
- TGI [8]: > 60.9 µM
- TGI [9]: > 100 µM
- TGI [10]: > 100 µM
- TGI [11]: > 100 µM
- TGI [12]: > 100 µM
- TGI [13]: > 100 µM
- TGI [14]: 42.9 µM
- TGI [15]: > 100 µM
- TGI [16]: > 100 µM
- TGI [17]: > 100 µM
- TGI [18]: > 100 µM
- TGI [19]: > 100 µM
- TGI [20]: > 100 µM
- TGI [21]: > 100 µM
- TGI [22]: > 100 µM
- TGI [57]: > 100 µM
- TGI [24]: > 31.6 µM
- TGI [25]: > 100 µM
- TGI [26]: > 100 µM
- TGI [27]: > 100 µM
- TGI [28]: > 45.3 µM
- TGI [58]: > 100 µM
- TGI [30]: > 100 µM
- TGI [31]: > 100 µM
- TGI [32]: > 100 µM
- TGI [33]: > 100 µM
- TGI [59]: > 100 µM
- TGI [34]: > 100 µM
- TGI [35]: > 79.8 µM
- TGI [36]: > 100 µM
- TGI [37]: > 56 µM
- TGI [38]: > 100 µM
- TGI [39]: > 100 µM
- TGI [40]: > 100 µM
- TGI [41]: > 100 µM
- TGI [42]: > 100 µM
- TGI [43]: > 100 µM
- TGI [44]: > 100 µM
- TGI [45]: > 100 µM
- TGI [46]: > 100 µM
- TGI [47]: > 100 µM
- TGI [48]: > 100 µM
- TGI [49]: > 100 µM
- TGI [50]: > 100 µM
- TGI [51]: > 100 µM
- TGI [52]: > 100 µM
- TGI [53]: > 100 µM
- TGI [54]: > 100 µM
- TGI [55]: > 100 µM
- TGI [56]: > 100 µM

Compound: NCCCCNCCCNC(=O)CNC(=O)CC(O)C(N)CCCC(NC(=O)C(CN)NC(=O)C(O)CNC(=O)CC(N)c1ccc(O)cc1)C(=O)O (centres undefined)
- TGI [1]: > 10 µM
- TGI [2]: > 10 µM
- TGI [3]: > 10 µM
- TGI [4]: > 10 µM
- TGI [5]: > 10 µM
- TGI [6]: > 10 µM
- TGI [7]: > 10 µM
- TGI [8]: > 10 µM
- TGI [9]: > 10 µM
- TGI [10]: > 10 µM
- TGI [11]: > 10 µM
- TGI [12]: > 10 µM
- TGI [13]: > 10 µM
- TGI [14]: > 10 µM
- TGI [15]: > 10 µM
- TGI [16]: > 10 µM
- TGI [17]: > 10 µM
- TGI [18]: > 10 µM
- TGI [19]: > 10 µM
- TGI [20]: > 10 µM
- TGI [21]: > 10 µM
- TGI [22]: > 10 µM
- TGI [57]: > 10 µM
- TGI [23]: > 10 µM
- TGI [24]: > 10 µM
- TGI [25]: > 10 µM
- TGI [26]: > 10 µM
- TGI [27]: > 10 µM
- TGI [28]: > 10 µM
- TGI [58]: > 10 µM
- TGI [29]: > 10 µM
- TGI [30]: > 10 µM
- TGI [31]: > 10 µM
- TGI [32]: > 10 µM
- TGI [33]: > 10 µM
- TGI [59]: > 10 µM
- TGI [34]: > 10 µM
- TGI [35]: > 10 µM
- TGI [36]: > 10 µM
- TGI [37]: > 10 µM
- TGI [38]: > 10 µM
- TGI [39]: > 10 µM
- TGI [40]: > 10 µM
- TGI [41]: > 10 µM
- TGI [42]: > 10 µM
- TGI [43]: > 10 µM
- TGI [44]: > 10 µM
- TGI [45]: > 10 µM
- TGI [46]: > 10 µM
- TGI [47]: > 10 µM
- TGI [48]: > 10 µM
- TGI [49]: > 10 µM
- TGI [51]: > 10 µM
- TGI [52]: > 10 µM
- TGI [53]: > 10 µM
- TGI [54]: > 10 µM
- TGI [55]: > 10 µM
- TGI [56]: > 10 µM

Compound: Cc1cc2c(cc1C)NC1=C(N2)OC(c2c[nH]c3ccc(COc4ccccc4)cc23)C1=O (centres undefined)
- TGI [1]: > 100 µM
- TGI [2]: > 100 µM
- TGI [3]: > 100 µM
- TGI [4]: > 100 µM
- TGI [5]: > 100 µM
- TGI [6]: > 100 µM
- TGI [8]: > 100 µM
- TGI [9]: > 100 µM
- TGI [10]: > 100 µM
- TGI [11]: 98.5 µM
- TGI [12]: > 100 µM
- TGI [13]: > 100 µM
- TGI [14]: > 100 µM
- TGI [15]: 49.8 µM
- TGI [16]: > 100 µM
- TGI [17]: > 100 µM
- TGI [18]: > 100 µM
- TGI [19]: > 100 µM
- TGI [20]: > 100 µM
- TGI [21]: > 100 µM
- TGI [22]: > 100 µM
- TGI [57]: > 100 µM
- TGI [23]: > 100 µM
- TGI [24]: > 100 µM
- TGI [25]: 67.1 µM
- TGI [26]: > 100 µM
- TGI [27]: > 100 µM
- TGI [28]: > 100 µM
- TGI [58]: > 100 µM
- TGI [29]: > 100 µM
- TGI [30]: > 100 µM
- TGI [31]: > 100 µM
- TGI [32]: > 100 µM
- TGI [33]: > 100 µM
- TGI [59]: > 100 µM
- TGI [34]: > 100 µM
- TGI [35]: > 100 µM
- TGI [36]: > 100 µM
- TGI [37]: > 100 µM
- TGI [38]: > 100 µM
- TGI [39]: > 100 µM
- TGI [40]: > 100 µM
- TGI [41]: 95.3 µM
- TGI [42]: > 100 µM
- TGI [43]: > 100 µM
- TGI [44]: > 100 µM
- TGI [45]: > 100 µM
- TGI [46]: > 100 µM
- TGI [47]: > 100 µM
- TGI [48]: 38.7 µM
- TGI [49]: > 100 µM
- TGI [50]: > 100 µM
- TGI [51]: > 100 µM
- TGI [52]: > 100 µM
- TGI [53]: > 100 µM
- TGI [54]: > 100 µM
- TGI [55]: > 100 µM
- TGI [56]: > 100 µM
